Laboratory results taken from PMC6318274, “Lattice engineering enables definition of molecular features allowing for potent small-molecule inhibition of HIV-1 entry” (Nature Communications, 2019).
“Also recorded” adds a separate entry of the source. Read-outs that look alike come from different tables or passages of the source.

Key:
[1] = test system: HIV-1 Env-pseudoviruses (30-strain panel); experiment: Neutralization assay, cross-clade 30-strain panel (Env-pseudoviruses, TZM-bl target cells); assay type: cell-based; settings: for IC50: Human immunodeficiency virus 1, TZM-bl; for number of viruses neutralized: of the 30 viruses
Method: Neutralization was measured using single-round-of-infection HIV-1 Env-pseudoviruses and TZM-bl target cells (ARP Cat No. #8129)[44],[45]. Compounds were prepared at 400 μM with 4% DMSO (dimethyl sulfoxide) in PBS (phosphate-buffered saline) and diluted 20 times as the starting concentration for serial dilution in the neutralization assays. […] After incubation at 37 °C for 2 days, infection of target cells was measured by luciferase activity. Neutralization curves were fit by nonlinear regression using a five-parameter hill slope equation[45].

[2] = test system: TZM-bl cells; set-up: method as in literature; settings: not measured here; ref literature; cited from earlier work
[3] = test system: HIV-1 strain NL4-3; experiment: Entry inhibition of laboratory-adapted HIV-1 strain NL4-3; assay type: cell-based
[4] = test system: TZM-bl cells; experiment: Cytotoxicity in the neutralization assay (TZM-bl cells + drugs); settings: highest concentration (20 μM)
[5] = 242-14 (Clade AG), read-out: IC50
[6] = 247-23 (Clade D), read-out: IC50
[7] = 0330.v4.c3 (Clade A), read-out: IC50
[8] = 7165.18 (Clade B), read-out: IC50
[9] = BJOX028000.10.3 (Clade AE), read-out: IC50
[10] = BL01.DG (Clade B), read-out: IC50
[11] = C4118.09 (Clade AE), read-out: IC50
[12] = CAP210.E8 (Clade C), read-out: IC50
[13] = CH119.10 (Clade BC), read-out: IC50
[14] = CNE10 (Clade B), read-out: IC50
[15] = CNE20 (Clade BC), read-out: IC50
[16] = CNE56 (Clade AE), read-out: IC50
[17] = DJ263.8 (Clade AG), read-out: IC50
[18] = DU156.12 (Clade C), read-out: IC50
[19] = Geomean, 30-strain panel, read-out: Geometric mean IC50
[20] = KER2008.12 (Clade A), read-out: IC50
[21] = MB201.A1 (Clade A), read-out: IC50
[22] = NKU3006.ec1 (Clade D), read-out: IC50
[23] = P0402.c2.11 (Clade G), read-out: IC50
[24] = PVO.04 (Clade B), read-out: IC50
[25] = R3265.c6 (Clade AE), read-out: IC50
[26] = REJO.67 (Clade B), read-out: IC50
[27] = T253-11 (Clade AG), read-out: IC50
[28] = T280-5 (Clade AG), read-out: IC50
[29] = ZM106.9 (Clade C), read-out: IC50

Row | SMILES | IC50 [1, 5] [nM] | IC50 [1, 6] [nM] | IC50 [1, 7] [nM] | IC50 ([1]; 426c (Clade C), read-out: IC50) [nM] | IC50 [1, 8] [nM] | IC50 ([1]; B41 (Clade B), read-out: IC50) [nM] | IC50 [1, 9] [nM] | IC50 [1, 10] [nM] | IC50 [1, 11] [nM] | IC50 [1, 12] [nM] | IC50 [1, 13] [nM] | IC50 [1, 14] [nM] | IC50 [1, 15] [nM] | IC50 [1, 16] [nM] | IC50 [1, 17] [nM] | IC50 [1, 18] [nM] | IC50 [1, 19] [nM] | IC50 [1, 20] [nM] | IC50 [1, 21] [nM] | IC50 [1, 22] [nM] | further results
1 | COc1ccnc2[nH]cc(C(=O)C(=O)N3CCN(C(=O)c4ccccc4)C[C@H]3C)c12 [BMS-378806, 4-benzoyl-1-[(4-methoxy-1H-pyrrolo[2,3-b]pyridin-3-yl)oxoacetyl]-2-(R)-methylpiperazine, reference compound] | – | – | – | – | – | – | – | – | – | – | – | – | – | – | – | – | – | – | – | – | IC50 ([1]; read-out: Geometric mean IC50): > 912 nM; Cytotoxicity [2]: lack of cytotoxicity
2 | O=C(C(=O)N1CCN(C(=O)c2ccccc2)CC1)c1c[nH]c2c(F)ccc(Br)c12 [BMS-386150] | 7020 | > 20000 | > 20000 | 6620 | > 20000 | 117 | > 20000 | > 20000 | > 20000 | > 20000 | 13700 | 509 | > 20000 | > 20000 | > 20000 | 1350 | > 6720 | > 20000 | > 20000 | 256 | fold lower neutralization potency than BMS-378806 ([1]; 30-strain panel): ~ 7 fold; IC50 [1, 23]: > 20000 nM; IC50 [1, 24]: 664 nM; IC50 [1, 25]: > 20000 nM; IC50 [1, 26]: > 20000 nM; IC50 [1, 27]: 541 nM; IC50 [1, 28]: 2020 nM; IC50 [1, 29]: 10800 nM; IC50 ([1]; read-out: IC50): 4670 nM
3 | COc1cnc(-c2csc(CN(C)CCCN(C)C)n2)c2[nH]cc(C(=O)C(=O)N3CCC(=C(C#N)c4ccccc4)CC3)c12 [BMS-814508] | 15 | 16 | 96 | 36 | 491 | 1 | > 4000 | 2810 | 2000 | 400 | 4 | 4 | 143 | > 4000 | < 0.3 | 20 | > 51 | 165 | 192 | 1 | EC50 ([3]; Human immunodeficiency virus 1, NL43, NL4-3): 0.495 ± 0.069 nM; fold more potent than BMS-626529 ([3]; NL4-3 EC50): 4 fold; IC50 [1, 23]: 12 nM; IC50 [1, 24]: 2 nM; IC50 [1, 25]: 1060 nM; IC50 [1, 26]: 2730 nM; IC50 [1, 27]: < 0.3 nM; IC50 [1, 28]: 0.8 nM; IC50 [1, 29]: 31 nM; IC50 ([1]; read-out: IC50): 8 nM; number of viruses neutralized [1]: 28; Cytotoxicity [4]: showed cytotoxicity; also recorded: Cytotoxicity was observed
4 | O=C(c1ccsc1)N1CCN(C(=O)C2(c3cccc(Cl)c3)CC2)CC1 [Compound 484, reference compound] | > 20000 | > 20000 | > 20000 | 13400 | > 20000 | 1730 | > 20000 | > 20000 | > 20000 | > 20000 | > 20000 | 1940 | > 20000 | > 20000 | 2780 | 7690 | > 12300 | > 20000 | > 20000 | 1650 | IC50 [1, 23]: > 20000 nM; IC50 [1, 24]: 7870 nM; IC50 [1, 25]: > 20000 nM; IC50 [1, 26]: > 20000 nM; IC50 [1, 27]: 3350 nM; IC50 [1, 28]: 11900 nM; IC50 [1, 29]: > 20000 nM; IC50 ([1]; […], read-out: IC50): 13600 nM; IC50 ([1]; read-out: IC50): > 20000 nM; number of viruses neutralized [1]: 11
